According to patent US8778912B2, “Composition of dialysis liquid comprising crystallisation inhibitor substances” (Universitat de les Illes Balears, priority 2008, dated 2014):

Legend:
[1] = Dialysis of artificial plasma with 5 mM etidronate against dialysing liquid with the same concentration of etidronate; assay type: in vitro ADME; details: 20 hours dialysis; 5 mM etidronate in both plasma and dialysing liquid, pH 7.4
Procedure: (§1) An artificial plasma was prepared with 5 mM of etidronate, regulating the ionic strength with 0.15 M NaCl. 25 ml of this solution were dialysed for 20 hours against a 1-l volume of a 0.15 M NaCl solution with the same concentration of etidronate as the plasma. The pH of both solutions was adjusted to 7.4 using bicarbonate buffer.
(§2) 5-ml aliquots of the dialysing liquid were collected at times 0, 1, 3, 6 and 20 hours, and the quantity of etidronate was determined in each of them. Moreover, the concentration of etidronate in the artificial plasma was determined at times 0 and 20 hours.

[2] = Dialysis of artificial plasma with 1 mM etidronate against dialysing liquid with 5 times greater etidronate concentration; assay type: in vitro ADME
Procedure: as §1, with “with 1” for “with 5”, “with a” for “with the same”, “etidronate 5 times greater than that of” for “etidronate as”
as §2

[3] = Dialysis of artificial plasma with 5 mM etidronate against dialysing liquid without etidronate; assay type: in vitro ADME; details: after a 20-hour period, pH 7.4
Procedure: as §1, with “without” for “with the same concentration of”, “(dialysing liquid model).” for “as the plasma.”
as §2

[4] = Intravenous administration to rats on a diet without phytate; urinary and plasma phytate; assay type: in vivo, male Wistar rats; details: treated group, 3 intravenous doses of 0.61 mmol/kg (400 mg/kg) 12 hours apart
Procedure: 6 male Wistar rats approximately 250 g in weight were acclimated from 7 dias in the animal house (T=[…] and humidity=60±5%) with 12:12-hour light-darkness cycles. The rats were housed in Plexiglas cages, with one animal per cage, and fed with food and drink ad libitum.
Following the acclimation period, the animals were randomly divided into two groups with 3 rats each, a control group (with a diet without phytate, thereby simulating a post-dialysis physiological condition) and a treated group, which received 3 intravenous doses of 0.61 mmol/kg (400 mg/kg) separated by 12-hour periods. Following the last administration, 24-hour urine samples were collected in order to determine the phytate and, subsequently, the animals were anaesthesised and blood samples were collected.
The procedures used in this experiment were performed in accordance with Directive 86/609/EEC regarding the protection of animals used for experimental and scientific purposes.

[5] = Dialysis of artificial plasma with 1.5 mM phytate against dialysing liquid without phytate; assay type: in vitro ADME; details: after a 20-hour period, pH 7.4
Procedure: An artificial plasma (liquid with a composition similar to that of plasma) was prepared with 1.5 mM phytate, regulating the ionic strength with 0.15 M NaCl. 25 ml of this solution were dialysed for 20 hours against a 1-l volume of a 0.15 M NaCl solution without phytate (dialysing liquid model). The pH of both solutions was adjusted to 7.4 using bicarbonate buffer. 5-ml aliquots of the dialysing liquid were collected at times 0, 1, 3, 6 and 20 hours, and the quantity of phytate in each of them was determined. Moreover, the concentration of phytate in the artificial plasma was determined at times 0 and 20 hours.

[6] = Dialysis of artificial plasma with 1.5 mM phytate against dialysing liquid with the same concentration of phytate; assay type: in vitro ADME; details: 20 hours dialysis; 1.5 mM phytate in both plasma and dialysing liquid, pH 7.4
Procedure: (§3) An artificial plasma was prepared with 1.5 mM of phytate, regulating the ionic strength with 0.15 M NaCl. 25 ml of this solution were dialysed for 20 hours against a 1-l volume of a 0.15 M NaCl solution with the same concentration of phytate as the plasma. The pH of both solutions was adjusted to 7.4 using bicarbonate buffer. 5-ml aliquots of the dialysing liquid were collected at times 0, 1, 3, 6 and 20 hours, and the quantity of phytate was determined in each of them. Moreover, the concentration of phytate in the artificial plasma was determined at times 0 and 20 hours.

[7] = Dialysis of artificial plasma with 300 μM phytate against dialysing liquid with 5 times greater phytate concentration; assay type: in vitro ADME
Procedure: as §3, with “with 300 μM” for “with 1.5 mM”, “with a” for “with the same”, “phytate 5 times greater than that of” for “phytate as”

Compound | variation in the concentration of etidronate in the plasma and the dialysing liquid [1] | change of plasma concentration of etidronate (in words) ([2]; 20-hour period, dialysis liquid with etidronate concentration greater than that of the plasma) | etidronate from the dialysis liquid that enters into the artificial plasma ([2]; 20 hours dialysis, plasma 1 mM etidronate, dialysis liquid 5 times greater, pH 7.4) | increase of the concentration of etidronate in the artificial plasma ([2]; 20 hours dialysis, plasma 1 mM etidronate, dialysis liquid 5 times greater, from ratio of initial volumes and concentrations) | quantity of etidronate in the dialysis solution, as share of the initial quantity in the artificial plasma [3] | concentration at 24 h ([4]; male, Wistar, rat, plasma, blood 24 hours after last administration, read-out: plasma level of phytate) | urinary excretion of phytate ([4]; 24-hour urine after last administration) | quantity of phytate in the dialysis solution, as share of the initial quantity in the artificial plasma [5] | variation in the concentration of phytate in the plasma and the dialysing liquid [6] | change of plasma concentration of phytate (in words) ([7]; 20-hour period, dialysis liquid with phytate concentration greater than that of the plasma) | phytate from the dialysis liquid that enters into the artificial plasma ([7]; 20 hours dialysis, plasma 300 μM phytate, dialysis liquid 5 times greater, pH 7.4) | increase of the concentration of phytate in the artificial plasma ([7]; 20 hours dialysis, plasma 300 μM phytate, dialysis liquid 5 times greater, from ratio of initial volumes and concentrations)
CC(O)(P(=O)(O)O)P(=O)(O)O [etidronate, etidronic acid] | no variations | increase the plasma concentration | up to 1.65% | 330% | 95.6% |  |  |  |  |  |  | 
O=P(O)(O)O[C@H]1[C@H](OP(=O)(O)O)[C@@H](OP(=O)(O)O)[C@H](OP(=O)(O)O)[C@@H](OP(=O)(O)O)[C@H]1OP(=O)(O)O [phytate, myo-inositol hexaphosphate] |  |  |  |  |  | 1000 ng/mL | 72 ± 10 µg | 40% | no variations | increase the plasma concentration | up to 0.75% | 140%
